We go through 1 molecule from patent publication EP1949908A1, “Combined use of derivatives of GLP-1 analogs and PPAR ligands” (NOVO NORDISK A/S, priority 2001, dated 2002).

In this test the test system is male ZDF rat. Nature of the test: Four weeks treatment of overtly diabetic male ZDF rats: HbA1c and 24-hour glucose profile. It is filed as in vivo. To be noted: mean±SEM, n=10, propionic acid compound 1 mg/kg oral gavage once daily, GLP-1 derivative 50 µg/kg subcutaneously twice daily. As for the experimental part: Ninety male ZDF rats aged 15-16 weeks were used in the study. Before treatment start, measurements of glucose and HbA1c were performed. All animals were overtly diabetic at the beginning of the study. Animals were allocated into the following 4 treatment groups:
(-)-2-Ethoxy-3-(4-(2-phenoxazin-10-yl-ethoxy)-phenyl)-propionic acid and Vehicle-1 were administered by oral gavage once daily at approx. 07:30. Arg^34, Lys^26(N^ε-(γ-Glu(N^α-hexadecanoyl)))-GLP-1 (7-37) and Vehicle-2 were administered subcutaneously twice daily at approx. 07:30 and 14:30.
After four weeks treatment, HbA1c was measured and 24-hour glucose profiles were assessed.
Delta HbA1c refers to the numerical difference between the measurement after treatment and the measurement before treatment. Glucose24hAUC refers to the total area under the glucose concentration curve during the 24-hour period. A two-way analysis of variance was performed for each parameter and the significance of the interaction term evaluated.

In the case of `CCOC(Cc1ccc(OCCN2c3ccccc3Oc3ccccc32)cc1)C(=O)O` (single isomer, unassigned; (-)) [(-)-2-ethoxy-3-(4-(2-phenoxazin-10-yl-ethoxy)-phenyl)-propionic acid], the “Delta HbA1c” value (after four weeks treatment minus before treatment) is on record as -0.81±0.36 % points. For the setting “total area under the glucose concentration curve during 24-hour period after four weeks treatment”, the Glucose24hAUC was determined as 456 ± 38 mM·h.
